Laboratory results as given in patent US8685974B2 (Bayer CropScience AG, priority 2009, dated 2014).
Read-outs that look alike come from different tables or passages of the source. Marks after values point to notes of the source that are not given here.

Structure (SMILES)	log p (pH 2.3)	log p (pH 2.7)	further results
CC(C)Cn1ncc(-c2cc[n+]([O-])c(NCc3ccccc3)c2)c1-c1ccc(Cl)s1 [Example 75]	3.48^[a]	–	–
CC(C)Cn1cc(-c2cc[n+]([O-])c(N)c2)c(-c2ccc(Cl)s2)n1 [Example 77]	2.39^[a]	–	logP value of the minor isomer (in parenthesis in column Isomer ratio [d]) (pH 2.3): (2.21)
NNc1nccc(-c2c[nH]nc2-c2ccc(Cl)s2)n1 [Example 78]	2.26^[a]	–	–
CN(C)c1nccc(-c2c[nH]nc2-c2ccc(Cl)s2)n1 [Example 79]	1.69^[a]	–	–
Clc1nccc(-c2c[nH]nc2-c2ccc(Cl)s2)n1 [Example 81]	2.64^[a]	–	–
C#CCNc1cc(-c2cnn(CC(C)C)c2-c2ccc(Cl)s2)cc[n+]1[O-] [Example 83]	2.7^[a]	–	–
C#CCNc1cc(-c2cn(CC(C)C)nc2-c2ccc(Cl)s2)cc[n+]1[O-] [Example 84]	2.92^[a]	–	–
N#Cc1[nH]nc(-c2ccc(Cl)s2)c1-c1ccncc1 [Example 85]	–	1.53^[b]	–
CCOC(=O)n1cc(-c2ccncc2)c(-c2ccc(Cl)s2)n1 [Example 87]	–	1.97^[b]	–
CS(=O)(=O)n1cc(-c2ccncc2)c(-c2ccc(Cl)s2)n1 [Example 88]	–	1.78^[b]	–
CC(C)NC(=O)n1cc(-c2ccncc2)c(-c2ccc(Cl)s2)n1 [Example 89]	–	2.26^[b]	–
Clc1ccc(-c2n[nH]cc2-c2ccnc(NCc3ccccc3)n2)s1 [Example 90]	2.37^[a]	–	–
CC(CN(C)C)Cn1cc(-c2ccnc(Cl)c2)c(-c2ccc(Cl)s2)n1 (centres unmarked) [Example 91]	1.84^[a]	–	logP value of the minor isomer (in parenthesis in column Isomer ratio [d]) (pH 2.3): (1.74)
CC(C)Cn1cc(-c2ccnc(NCc3ccccc3)n2)c(-c2ccc(Cl)s2)n1 [Example 93]	4.31^[a]	–	–
CC(C)Cn1cc(-c2ccnc(N(Cc3ccccc3)C(=O)C(C)C)n2)c(-c2ccc(Cl)s2)n1 [Example 94]	5.88^[a]	–	–
CC(C)Cn1ncc(-c2ccnc(NCc3ccccc3)n2)c1-c1ccc(Cl)s1 [Example 96]	3.96^[a]	–	–
CCC(C)n1cc(-c2ccnc(C(=O)NC(C)C)c2)c(-c2ccc(Cl)s2)n1 (centres unmarked) [Example 99]	–	4.82^[b]	–
CCC(C)n1cc(-c2ccnc(Br)c2)c(-c2ccc(Cl)s2)n1 (centres unmarked) [Example 100]	–	5.03^[b]	–
COc1ccc(Cn2nc(-c3ccc(Cl)s3)c(-c3ccncc3)c2[Si](C)(C)C)cc1 [Example 102]	–	4.84^[b]	–
COc1ccc(Cn2nc(-c3ccc(Cl)s3)c(-c3ccncc3)c2SC)cc1 [Example 103]	–	3.78^[b]	–
CCC(C)n1cc(-c2ccnc(C#CC3CC3)c2)c(-c2ccc(Cl)s2)n1 (centres unmarked) [Example 111]	–	4.56^[b]	–
C#CCNc1cc(-c2cn(CC(C)C)nc2-c2ccc(Cl)s2)ccn1 [Example 112]	–	2.30^[b]	–
Fc1ccccc1Cn1cc(-c2ccncc2)c(-c2sccc2Cl)n1 [Example 113]	–	1.74^[b]	logP value of the minor isomer (in parenthesis in column Isomer ratio [d]) (pH 2.7): (1.76)
CC(C)n1cc(-c2ccncc2)c(-c2cc(Cl)cs2)n1 [Example 114]	–	1.6^[b]	logP value of the minor isomer (in parenthesis in column Isomer ratio [d]) (pH 2.7): (1.74)
COCn1cc(-c2ccnc(NC(C)C)n2)c(-c2ccc(Cl)s2)n1 [Example 115]	–	2.39^[b]	logP value of the minor isomer (in parenthesis in column Isomer ratio [d]) (pH 2.7): (2.39)
CCC(CC)n1cc(-c2ccnc(NC(C)C)n2)c(-c2ccc(Cl)s2)n1 [Example 116]	–	3.57^[b]	logP value of the minor isomer (in parenthesis in column Isomer ratio [d]) (pH 2.7): (3.37)
C#CCn1cc(-c2ccnc(NC(C)C)n2)c(-c2ccc(Cl)s2)n1 [Example 117]	–	2.52^[b]	logP value of the minor isomer (in parenthesis in column Isomer ratio [d]) (pH 2.7): (3.13)

Structure (SMILES)	log p (pH 2.3)	log p (pH 2.7)	further results
CC(C)=CCn1cc(-c2ccnc(NC(C)C)n2)c(-c2ccc(Cl)s2)n1 [Example 118]	–	3.44^[b]	logP value of the minor isomer (in parenthesis in column Isomer ratio [d]) (pH 2.7): (3.00)
CC(C)Nc1nccc(-c2cn(CCCl)nc2-c2ccc(Cl)s2)n1 [Example 119]	–	2.63^[b]	logP value of the minor isomer (in parenthesis in column Isomer ratio [d]) (pH 2.7): (2.35)
CCOCCn1cc(-c2ccnc(NC(C)C)n2)c(-c2ccc(Cl)s2)n1 [Example 120]	–	2.56^[b]	logP value of the minor isomer (in parenthesis in column Isomer ratio [d]) (pH 2.7): (2.33)
CC(C)Nc1nccc(-c2cn(Cc3ccccc3F)nc2-c2ccc(Cl)s2)n1 [Example 121]	–	3.39^[b]	logP value of the minor isomer (in parenthesis in column Isomer ratio [d]) (pH 2.7): (3.02
CC(C)Nc1nccc(-c2cn(CC#N)nc2-c2ccc(Cl)s2)n1 [Example 122]	–	2.4^[b]	–
C=CC(C)n1cc(-c2ccnc(NC(C)C)n2)c(-c2ccc(Cl)s2)n1 (centres unmarked) [Example 123]	–	3.02^[b]	logP value of the minor isomer (in parenthesis in column Isomer ratio [d]) (pH 2.7): (2.73)
CC(C)Nc1nccc(-c2cn(CC(F)(F)F)nc2-c2ccc(Cl)s2)n1 [Example 124]	–	3.11^[b]	–
Cn1cc(-c2ccncc2)c(-c2cc(Cl)cs2)n1 [Example 125]	–	1.11^[b]	logP value of the minor isomer (pH 2.7): (1.05)
N#CCCn1cc(-c2ccncc2)c(-c2cc(Cl)cs2)n1 [Example 126]	–	1.16^[b]	–
FC(F)Cn1cc(-c2ccncc2)c(-c2sccc2Cl)n1 [Example 127]	–	1.14^[b]	logP value of the minor isomer (pH 2.7): (1.17)
Clc1ccsc1-c1nn(CCc2ccccc2)cc1-c1ccncc1 [Example 128]	–	1.88^[b]	logP value of the minor isomer (pH 2.7): (1.84)
COCn1cc(-c2ccncc2)c(-c2sccc2Cl)n1 [Example 129]	–	0.95^[b]	–
CCC(CC)n1cc(-c2ccncc2)c(-c2sccc2Cl)n1 [Example 130]	–	1.78^[b]	logP value of the minor isomer (pH 2.7): (1.88)
C#CCn1cc(-c2ccncc2)c(-c2sccc2Cl)n1 [Example 131]	–	1.11^[b]	logP value of the minor isomer (pH 2.7): (1.10)
CCC(C)n1cc(-c2ccncc2)c(-c2sccc2Cl)n1 (centres unmarked) [Example 132]	–	1.56^[b]	logP value of the minor isomer (pH 2.7): (1.67)
CC(C)=CCn1cc(-c2ccncc2)c(-c2sccc2Cl)n1 [Example 133]	–	1.74^[b]	–
ClCCn1cc(-c2ccncc2)c(-c2sccc2Cl)n1 [Example 134]	–	1.22^[b]	logP value of the minor isomer (pH 2.7): (1.29)
CCOCCn1cc(-c2ccncc2)c(-c2sccc2Cl)n1 [Example 135]	–	1.23^[b]	–
C=CCn1cc(-c2ccncc2)c(-c2sccc2Cl)n1 [Example 136]	–	1.22^[b]	logP value of the minor isomer (pH 2.7): (1.28)
N#CCn1cc(-c2ccncc2)c(-c2sccc2Cl)n1 [Example 137]	–	0.93^[b]	logP value of the minor isomer (pH 2.7): (0.78
FC(F)(F)Cn1cc(-c2ccncc2)c(-c2sccc2Cl)n1 [Example 138]	–	1.39^[b]	–
CC(C)Nc1nccc(-c2cn(C)nc2-c2ccc(Cl)s2)n1 [Example 139]	–	2.07^[b]	logP value of the minor isomer (pH 2.7): (1.93)
CC(C)Nc1nccc(-c2cn(CCC#N)nc2-c2ccc(Cl)s2)n1 [Example 140]	–	2.15^[b]	–
CCn1cc(-c2ccnc(NC(C)C)n2)c(-c2ccc(Cl)s2)n1 [Example 141]	–	2.39^[b]	logP value of the minor isomer (pH 2.7): (2.20)
Cn1cc(-c2ccncc2)c(-c2sccc2Cl)n1 [Example 142]	–	0.78^[b]	logP value of the minor isomer (pH 2.7): (0.88)
N#CCCn1cc(-c2ccncc2)c(-c2sccc2Cl)n1 [Example 143]	–	0.86^[b]	–
CC(C)n1cc(-c2ccnc(NC=O)n2)c(-c2ccc(Cl)s2)n1 [Example 144]	3.81^[a]	–	–

Structure (SMILES)	log p (pH 2.3)	log p (pH 2.7)	further results
Cc1c(-c2ccncc2)c(-c2ccc(Cl)s2)nn1C [Example 147]	–	1.29^[b]	log p (pH 7.8): 2.62^[c];
CC(C)Cn1cc(-c2ccncc2)c(-c2cc(Cl)cs2)n1 [Example 152]	–	1.87^[b]	–
CC(C)Nc1nccc(-c2cn(CCc3ccccc3)nc2-c2ccc(Cl)s2)n1 [Example 153]	–	3.63^[b]	–
CC(C)Nc1nccc(-c2cn(C3CCCC3)nc2-c2ccc(Cl)s2)n1 [Example 154]	–	3.61^[b]	–
C=CCn1cc(-c2ccnc(NC(C)C)n2)c(-c2ccc(Cl)s2)n1 [Example 155]	–	2.68^[b]	–
CCn1cc(-c2ccncc2)c(-c2cc(Cl)cs2)n1 [Example 156]	–	1.34^[b]	–
FC(F)Cn1cc(-c2ccncc2)c(-c2cc(Cl)cs2)n1 [Example 157]	–	1.42^[b]	–
CC(C)n1cc(-c2ccncc2)c(-c2sccc2Cl)n1 [Example 158]	–	1.38^[b]	–
CC(C)Cn1cc(-c2ccncc2)c(-c2sccc2Cl)n1 [Example 159]	–	1.62^[b]	–
Clc1ccsc1-c1nn(C2CCCC2)cc1-c1ccncc1 [Example 160]	–	1.76^[b]	–
C=CC(C)n1cc(-c2ccncc2)c(-c2sccc2Cl)n1 (centres unmarked) [Example 161]	–	1.51^[b]	–
CC(C)Nc1nccc(-c2cn(CC(F)F)nc2-c2ccc(Cl)s2)n1 [Example 162]	–	2.66^[b]	–
CCn1cc(-c2ccncc2)c(-c2sccc2Cl)n1 [Example 163]	–	1.14^[b]	–
COCC(C)Nc1nccc(-c2cn(C(C)C)nc2-c2ccc(Cl)s2)n1 (centres unmarked) [Example 178]	2.82^[a]	–	–
CCC(C)Nc1nccc(-c2cn(C(C)C)nc2-c2ccc(Cl)s2)n1 (centres unmarked) [Example 182]	3.15^[a]	–	–
C=CCNc1nccc(-c2cn(C(C)C)nc2-c2ccc(Cl)s2)n1 [Example 184]	3^[a]	–	–
CC(C)n1cc(-c2ccnc(N)n2)c(-c2ccc(Cl)s2)n1 [Example 185]	2.01^[a]	–	–
CCC(C)n1cc(-c2ccnc(NC(C)C)n2)c(-c2ccc(Cl)s2)n1 (centres unmarked) [Example 189]	3.25^[a]	–	–
CC(C)n1cc(-c2ccnc(Cl)n2)c(-c2ccc(Cl)s2)n1 [Example 192]	4.31^[a]	–	–
CC(C)n1cc(-c2ccnc(NCc3ccccc3)n2)c(-c2ccc(Cl)s2)n1 [Example 198]	3.81^[a]	–	–
CCC(C)n1cc(-c2ccnc(NCc3ccccc3)n2)c(-c2ccc(Cl)s2)n1 (centres unmarked) [Example 200]	4.27^[a]	–	–
CCC(C)n1cc(-c2ccnc(S(C)(=O)=O)n2)c(-c2ccc(Cl)s2)n1 (centres unmarked) [Example 202]	3.52^[a]	–	–
CC(C)n1cc(-c2ccnc(S(C)(=O)=O)n2)c(-c2ccc(Cl)s2)n1 [Example 203]	3.15^[a]	–	–
CCC(C)n1ncc(-c2ccnc(SC)n2)c1-c1ccc(Cl)s1 (centres unmarked) [Example 209]	4.76^[a]	–	–
CC(C)n1ncc(-c2ccncc2)c1-c1ccc(I)s1 [Example 215]	–	1.78^[b]	–
